Laboratory results as given in PMC5071873, “The Effects of Puerarin on Rat Ventricular Myocytes and the Potential Mechanism” (Scientific Reports, 2016).
Like-named read-outs stand apart in the source and are kept apart here.

Columns and labels:
Assay type in all cases: cell-based
[1] = target: T1, IKs channels (KCNQ and KCNE) (Homo sapiens, UniProt P51787); assay: Whole-cell patch clamp of IKs currents (Kv7.1 + KCNE1, voltage steps) in transfected HEK293 cells; settings: for IC50: HEK293, non-linear Hill fit, n = 6 each point; for IKs-tail current density / IKs current density: at 40 mV; for IKs-tail current density: control 23.5 ± 1.2; for IKs current density: control 33.8 ± 3.2
T1 construct: expressed in transfected cells; host or cells: HEK293
Protocol: (§1) The Tyrode’s solution contained (mM): 126 NaCl, 5.4 KCl, 1.8 CaCl2, 1 MgCl2, 0.33 NaH2PO4, 10 HEPES and 10 glucose, pH 7.4 (adjusted with NaOH). The Ca^2+-free Tyrode’s solution was prepared by removing CaCl2 from the Tyrode’s solution. The Kreb’s solution used for cell storage contained (mM): 70 glutamic acid, 30 KCl, 15 taurine, 0.5 MgCl2, 10 KH2PO4, 0.5 EGTA, 10 HEPES, 10 glucose, and 1% albumin, pH 7.4 (adjusted with KOH). The enzyme solution used for the rat cardiomyocyte isolation contained 0.08 g/L collagenase (type II) and 1.0 g/L BSA in Kreb’s solution. For action potential recording on cardiomyocyte, the pipette solution contained (mM): 100 potassium aspartate, 30 KCl, 1 MgCl2, 5 Mg-ATP, 5 EGTA, 5 HEPES, pH 7.3 (adjusted with KOH); the Tyrode’s solution was used as the standard bath solution. For whole-cell recording of IKs on myocytes, the pipette solution contained (mM): 125 potassium aspartate, 20 KCl, 1 MgCl2, 5 Mg-ATP, 10 EGTA, 5 HEPES, pH 7.3 (adjusted with KOH); the bath solution contained (mM): 132 NaCl, 4 KCl, 1.8 CaCl2, 1.2 MgCl2, 10 HEPES, 5 glucose, pH 7.4 (adjusted with NaOH). 3 μM nifedipine and 5 μM E-4031 were used to block the calcium current and IKr, respectively. For whole-cell recording on HEK-293 cells, the pipette solution contained (mM): 140 KCl, 2 MgCl2, 10 HEPES, 0.1 EGTA, 4 K2-ATP, pH 7.3 (adjusted with KOH); the bath solution contained (mM): 120 NaCl, 5 KCl, 1.5 CaCl2, 1 MgCl2, 10 HEPES, 10 glucose, pH 7.4 (adjusted with NaOH). For single-channel recording, the pipette solution (extracellular) contained (mM): 145 KCl, 10 HEPES, 10 glucose, pH 7.4 (adjusted with KOH); the bath solution (intracellular) contained (mM): 145 KCl, 1.2 MgCl2, 10 HEPES, 0.1 EGTA, pH 7.38 (adjusted with KOH).
Cell suspensions were transferred into a chamber on the stage of a Nikon Eclipse Ti inverted microscope (Tokyo, Japan). The whole-cell recordings were performed using isolated single ventricular myocytes. Patch electrodes were pulled from a horizontal microelectrode puller (P-1000, Sutter Instrument Co, USA) and fire polished to final tip resistance of 4.0–8.0 MΩ when filled with internal solutions. Signals were amplified with an Axopatch 200B amplifier (Axon Instruments, USA) and filtered at 1 kHz. The pCLAMP 9.0 software was used to generate current and voltage clamp protocols, acquire data, and analyse the current traces. The whole-cell series resistance was compensated to more than 80%. All of the experiments were performed at room temperature (22 ± 1 °C). The whole-cell IK1 was elicited by a ramp voltage protocol from −140 to + 40 mV in 1 s, or at a 0 mV holding potential to test potentials from −140 to + 40 mV in 10 mV increments. The IK1 was calculated as the difference between the peak inward current and the holding current level. The whole-cell Kv7.1/IKs were elicited from a −30 mV holding potential to test potentials from −80 to + 40 mV in 10 mV increments.
Human Kir2.1 cDNA, Kir2.3 cDNA, Kv7.1 cDNA and KCNE1 cDNA, was cloned in Human Embryonic Kidney 293 cells, respectively. In some cases, Kv7.1 cDNA and KCNE1 cDNA were simultaneously cloned in Human Embryonic Kidney 293 cells.

intracellular cAMP = assay: Mouse/Rat cAMP assay in rat cardiomyocytes; settings: puerarin 1 mM
Protocol: cAMP levels were measured in rat cardiomyocytes using a Mouse/Rat cAMP kit (cAMP parameter assay kit, R&D Systems) according to the manufacturer’s instructions. The assay is based on the competitive binding technique. A streptavidin-coated plate is incubated with a biotinylated monoclonal antibody specific for cAMP. Following a wash to remove excess monoclonal antibody, cAMP present in a sample competes with a fixed amount of horseradish peroxidase (HRP)-labeled cAMP for sites on the monoclonal antibody. This is followed by another wash to remove excess conjugate and unbound sample. A substrate solution is added to the wells to determine the bound enzyme activity. The color development is stopped and the absorbance is read at 450 nm. The intensity of the color is inversely proportional to the concentration of cAMP in the sample. The level of cAMP in the sample was determined based on a standard curve and expressed as pmol/mg per each sample. Normalized cAMP was calculated by compared with the control group. In our study, we investigate the effect of puerarin on intracellular cAMP concentration and its effect upon the increase of cAMP induced by isoproterenol, forskolin and 8-Br-cAMP.

Kv7.1 = target: T2, Kv7.1 (Homo sapiens, UniProt P51787); assay: Single-channel inside-out patch clamp recording of Kv7.1; settings: puerarin 100 μM, inside-out, intracellular side
T2 construct: expressed in transfected cells; host or cells: HEK293
Protocol: as §1, with “3 μM nifedipine and 5 μM E-4031 were used to block the calcium current and IKr, respectively. For whole-cell recording on HEK-293 cells, the pipette solution contained (mM): 140 KCl, 2 MgCl2, 10 HEPES, 0.1 EGTA, 4 K2-ATP, pH 7.3 (adjusted with KOH); the bath solution contained (mM): 120 NaCl, 5 KCl, 1.5 CaCl2, 1 MgCl2, 10 HEPES, 10 glucose, pH 7.4 (adjusted with NaOH). For single-channel recording, the pipette solution (extracellular) contained (mM): 145 KCl, 10 HEPES, 10 glucose, pH 7.4 (adjusted with KOH); the bath solution (intracellular) contained (mM): 145 KCl, 1.2 MgCl2, 10 HEPES, 0.1 EGTA, pH 7.38 (adjusted with KOH).” left out
(§2) Single-channel activity was recorded at a series of holding levels ranging from 10 mV of 50 mV. […] Single-channel events were listed and analysed by pclampfit 9.0 (single-channel search-in-analyse function). […]

IKs channel = target: T3, IKs channel (Homo sapiens, UniProt P51787); assay: Single-channel inside-out patch clamp recording of IKs; settings: puerarin 100 μM, inside-out, intracellular side
T3 construct: expressed in transfected cells; host or cells: HEK293
Protocol: as §1, with “3 μM nifedipine and 5 μM E-4031 were used to block the calcium current and IKr, respectively. For whole-cell recording on HEK-293 cells, the pipette solution contained (mM): 140 KCl, 2 MgCl2, 10 HEPES, 0.1 EGTA, 4 K2-ATP, pH 7.3 (adjusted with KOH); the bath solution contained (mM): 120 NaCl, 5 KCl, 1.5 CaCl2, 1 MgCl2, 10 HEPES, 10 glucose, pH 7.4 (adjusted with NaOH). For single-channel recording, the pipette solution (extracellular) contained (mM): 145 KCl, 10 HEPES, 10 glucose, pH 7.4 (adjusted with KOH); the bath solution (intracellular) contained (mM): 145 KCl, 1.2 MgCl2, 10 HEPES, 0.1 EGTA, pH 7.38 (adjusted with KOH).” left out
as §2

`O=c1c(-c2ccc(O)cc2)coc2c([C@@H]3O[C@H](CO)[C@@H](O)[C@H](O)[C@H]3O)c(O)ccc12` [Puerarin, 8-c-glucoside of daidzein] was tested, and the IC50 ([1]; read-out: IC50, inhibition of IKs at the peak currents) was 55.6 µM, the IC50 ([1]; read-out: IC50, inhibition of IKs at the tail currents) was 59.8 µM and the “Hill coefficient, inhibition of IKs” value ([1]; non-linear Hill fit) was 0.989. It also gave an IKs-tail current density ([1]; puerarin 10 μM) of 17.8 ± 1.5 pA/pF, an IKs current density ([1]; puerarin 10 μM) of 25.6 ± 2.4 pA/pF and an IKs-tail current density ([1]; puerarin 100 μM) of 9.7 ± 1.1 pA/pF. It also gave an IKs current density ([1]; puerarin 100 μM) of 15.7 ± 1.9 pA/pF, an IKs-tail current density ([1]; puerarin 1 mM) of 6.4 ± 1.2 pA/pF and an IKs current density ([1]; puerarin 1 mM) of 6.0 ± 1.3 pA/pF. The IKs-tail current density ([1]; puerarin 10 mM) was 5.2 ± 1.3 pA/pF, the IKs current density ([1]; puerarin 10 mM) was 5.4 ± 1.7 pA/pF and the “effect upon the increase of cAMP induced by isoproterenol, forskolin” value (intracellular cAMP; rat cardiac myocytes) was “no effect”. For the same compound, the “effect on intracellular cAMP concentration” value (intracellular cAMP; rat cardiac myocytes (text: also HEK293 transfected Kv7.1/IKs)) was “no effect”, the “open probability of Kv7.1 channel” value (Kv7.1) was “significantly reduced” and the “open probability of IKs channel” value (IKs channel) was “reduced”.
